ChEMBL document CHEMBL1201862, “PubChem BioAssay data set” (2004)
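A five-concentration, 48-hour dose response in 96-well plates underlies each endpoint, interpolated linearly between surrounding concentrations. Here, GI50 denotes the concentration required for 50% inhibition of growth.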 Active and inactive are the calls of the source. No stated cut-off is given here; in the data, active = GI50 up to about 1.1 µM and inactive = higher.

Experiments:
Test in all cases: DTP human tumour cell line panel, 48 h
SF-539 = system: SF-539
ACHN = system: ACHN
HOP-92 = system: HOP-92
786-0 = system: 786-0
A549 = system: A549
EKVX = system: EKVX
HCC 2998 = system: HCC 2998
SK-MEL-5 = system: SK-MEL-5
UO-31 = system: UO-31
NCI-H522 = system: NCI-H522
SNB-75 = system: SNB-75
OVCAR-3 = system: OVCAR-3
KM12 = system: KM12
SR = system: SR
OVCAR-5 = system: OVCAR-5
UACC-62 = system: UACC-62
MDA-MB-231 = system: MDA-MB-231
T47D = system: T47D
MDA-N = system: MDA-N
Hs-578T = system: Hs-578T

SMILES	GI50 (SF-539)	GI50 (ACHN)	GI50 (HOP-92)	GI50 (786-0)	GI50 (A549)	GI50 (EKVX)	GI50 (HCC 2998)	GI50 (SK-MEL-5)	GI50 (UO-31)	GI50 (NCI-H522)	GI50 (SNB-75)	GI50 (OVCAR-3)	GI50 (KM12)	GI50 (SR)	GI50 (OVCAR-5)	GI50 (UACC-62)	GI50 (MDA-MB-231)	GI50 (T47D)	GI50 (MDA-N)	GI50 (Hs-578T)
C1OC1CO[C@@H]1CO[C@H]2[C@@H]1OC[C@H]2OCC1CO1 (stereo partly drawn)	> 100 µM (inactive)	73.1 µM (inactive)	> 100 µM (inactive)	> 100 µM (inactive)	> 100 µM (inactive)	> 100 µM (inactive)	> 100 µM (inactive)	> 100 µM (inactive)	> 100 µM (inactive)	> 100 µM (inactive)	> 100 µM (inactive)	> 100 µM (inactive)	> 100 µM (inactive)	89.5 µM (inactive)	> 100 µM (inactive)	> 100 µM (inactive)				
O=C(/C=C/c1cc(Cl)cc(Cl)c1O)c1cccc(O)c1	28.2 µM (inactive)	> 100 µM (inactive)	27.8 µM (inactive)	70.5 µM (inactive)	> 100 µM (inactive)	36.3 µM (inactive)	85.3 µM (inactive)	45.6 µM (inactive)	74.1 µM (inactive)	> 100 µM (inactive)	36 µM (inactive)	28.4 µM (inactive)	54 µM (inactive)	25.5 µM (inactive)	15 µM (inactive)	29.8 µM (inactive)				
COc1ccc(N[C@H](C[S+]([O-])c2ccc(C)cc2)C(F)(F)F)cc1 (stereo partly drawn)	> 100 µM (inactive)	> 100 µM (inactive)	> 100 µM (inactive)	> 100 µM (inactive)	> 100 µM (inactive)	> 100 µM (inactive)	> 100 µM (inactive)	> 100 µM (inactive)	> 100 µM (inactive)	> 100 µM (inactive)	> 100 µM (inactive)	> 100 µM (inactive)	> 100 µM (inactive)	> 100 µM (inactive)	> 100 µM (inactive)	> 100 µM (inactive)	> 100 µM (inactive)	> 100 µM (inactive)	> 100 µM (inactive)	
COc1ccc(C[C@@H](CO)NC2=C(C#N)CCC2)cc1	26.3 µM (inactive)	49.9 µM (inactive)	43.5 µM (inactive)	64.1 µM (inactive)	86.7 µM (inactive)	35.7 µM (inactive)	19.6 µM (inactive)	34.9 µM (inactive)	46 µM (inactive)		22.2 µM (inactive)	36.8 µM (inactive)	19.5 µM (inactive)		71.6 µM (inactive)	31.5 µM (inactive)	15.1 µM (inactive)		28.6 µM (inactive)	20 µM (inactive)
O=c1c(F)cn2c(=O)n1CCCCCCCn1c(=O)c(F)cn(c1=O)CCCCCCC2	33.1 µM (inactive)	> 100 µM (inactive)	57.7 µM (inactive)	40.7 µM (inactive)	> 100 µM (inactive)	> 100 µM (inactive)	> 100 µM (inactive)	39.9 µM (inactive)	> 100 µM (inactive)	> 100 µM (inactive)	0.105 µM (active)	61.7 µM (inactive)	73.1 µM (inactive)	39.4 µM (inactive)	> 100 µM (inactive)	60.5 µM (inactive)	34 µM (inactive)	> 100 µM (inactive)	> 100 µM (inactive)	
Cc1ccc(C2(O)CC(c3ccc([N+](=O)[O-])o3)=NN2C(=O)COc2ccc(Cl)cc2)cc1 (stereo not drawn)	10.2 µM (inactive)	4.99 µM (inactive)	7.93 µM (inactive)	4.45 µM (inactive)	7.29 µM (inactive)	6.3 µM (inactive)	6 µM (inactive)	2.32 µM (inactive)	5.5 µM (inactive)	9.04 µM (inactive)	13.6 µM (inactive)	5.35 µM (inactive)	4.66 µM (inactive)	1.82 µM (inactive)	37.2 µM (inactive)	3.55 µM (inactive)				
